Measured values: ChEMBL document CHEMBL1201862, “PubChem BioAssay data set” (2004)
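Following 48 hours of exposure in 96-well plates, responses at five concentrations were used to interpolate endpoints linearly. GI50: concentration for 50% inhibition of growth.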 Active and inactive are the calls of the source. No stated cut-off is given here; in the data, active = GI50 up to about 1.1 µM and inactive = higher.

Assays:
Test in all cases: inhibition of tumour cell growth, NCI panel, 48 h
Malme-3M = test system: Malme-3M
SR = test system: SR
SK-MEL-28 = test system: SK-MEL-28
COLO 205 = test system: COLO 205
NCI-H460 = test system: NCI-H460
OVCAR-3 = test system: OVCAR-3
HCC 2998 = test system: HCC 2998
SF-295 = test system: SF-295
786-0 = test system: 786-0
NCI/ADR-RES = test system: NCI/ADR-RES
SK-OV-3 = test system: SK-OV-3
MDA-MB-231 = test system: MDA-MB-231
CAKI-1 = test system: CAKI-1
SF-268 = test system: SF-268
DU-145 = test system: DU-145
SK-MEL-2 = test system: SK-MEL-2
HCT-116 = test system: HCT-116
UACC-257 = test system: UACC-257
HT-29 = test system: HT-29
LOX IMVI = test system: LOX IMVI

Measured: GI50

N#Cc1c(-c2ccc(Cl)cc2)cc(-c2ccc(Nc3ccnc4cc(Cl)ccc34)cc2)nc1N
inactive: Malme-3M > 100 µM | SR 5.45 µM | SK-MEL-28 > 100 µM | COLO 205 > 100 µM | NCI-H460 > 100 µM | OVCAR-3 > 100 µM | HCC 2998 > 100 µM | SF-295 > 100 µM | 786-0 > 100 µM | NCI/ADR-RES > 100 µM | SK-OV-3 > 100 µM | MDA-MB-231 > 100 µM | CAKI-1 > 100 µM | SF-268 > 100 µM | DU-145 > 100 µM | SK-MEL-2 > 100 µM | HCT-116 > 100 µM

CC(NC(=O)c1ccccc1)NC(=O)C(C)C(=O)Nc1ccccc1 (stereo not drawn)
inactive: Malme-3M > 100 µM | SR > 100 µM | COLO 205 > 100 µM | NCI-H460 > 100 µM | SF-295 > 100 µM | 786-0 > 100 µM | UACC-257 > 100 µM | NCI/ADR-RES > 100 µM | SK-OV-3 > 100 µM | MDA-MB-231 > 100 µM | CAKI-1 > 100 µM | SF-268 62.2 µM | HT-29 > 100 µM | DU-145 > 100 µM | SK-MEL-2 > 100 µM | HCT-116 > 100 µM

Cc1cn([C@@H]2O[C@H](CO[Si](C)(C)C(C)(C)C)[C@]3(O[C@H]3C(=O)NN)[C@H]2O[Si](C)(C)C(C)(C)C)c(=O)[nH]c1=O
inactive: Malme-3M 3.39 µM | SK-MEL-28 10.3 µM | COLO 205 2.64 µM | NCI-H460 4.31 µM | OVCAR-3 3.76 µM | HCC 2998 3.13 µM | SF-295 7.69 µM | 786-0 4.06 µM | UACC-257 13 µM | NCI/ADR-RES 15.6 µM | SK-OV-3 18.1 µM | MDA-MB-231 3.57 µM | CAKI-1 11.6 µM | LOX IMVI 3.33 µM | SF-268 3.59 µM | HT-29 2.9 µM | DU-145 6.31 µM | SK-MEL-2 6.37 µM | HCT-116 4.08 µM

C[C@]12CCC(O)CC1=CC[C@@H]1[C@@H]2CC[C@]2(C)C(O)[C@H](n3ccnc3)C[C@@H]12 (stereo partly drawn)
inactive: Malme-3M > 100 µM | SR 13.1 µM | SK-MEL-28 > 100 µM | COLO 205 47.4 µM | NCI-H460 24.8 µM | OVCAR-3 72.4 µM | SF-295 52 µM | 786-0 > 100 µM | UACC-257 28.2 µM | NCI/ADR-RES > 100 µM | MDA-MB-231 > 100 µM | CAKI-1 > 100 µM | LOX IMVI 39.2 µM | SF-268 > 100 µM | HT-29 8.17 µM | DU-145 > 100 µM | SK-MEL-2 52.1 µM | HCT-116 59.4 µM

NC(=O)N/N=C\c1ccccc1OCc1cccc(COc2ccccc2/C=N\NC(N)=O)n1
inactive: Malme-3M 72.9 µM | SK-MEL-28 > 100 µM | COLO 205 > 100 µM | NCI-H460 > 100 µM | OVCAR-3 > 100 µM | HCC 2998 21.3 µM | SF-295 17.1 µM | 786-0 20.5 µM | UACC-257 > 100 µM | NCI/ADR-RES 57.4 µM | SK-OV-3 19 µM | MDA-MB-231 14.6 µM | CAKI-1 > 100 µM | LOX IMVI 46.1 µM | SF-268 21 µM | HT-29 > 100 µM | DU-145 18.8 µM | SK-MEL-2 28.8 µM | HCT-116 33.9 µM

O=C(/C=C/c1ccc([N+](=O)[O-])cc1)c1nc2ccccc2[nH]1
inactive: Malme-3M > 100 µM | SR 2.49 µM | SK-MEL-28 > 100 µM | COLO 205 58.7 µM | NCI-H460 11.4 µM | OVCAR-3 9.44 µM | SF-295 > 100 µM | 786-0 27.4 µM | UACC-257 9.08 µM | NCI/ADR-RES > 48.2 µM | SK-OV-3 > 100 µM | MDA-MB-231 26.9 µM | CAKI-1 4.23 µM | LOX IMVI 24.3 µM | SF-268 39.4 µM | HT-29 38.5 µM | DU-145 97.3 µM | SK-MEL-2 > 77.8 µM | HCT-116 1.88 µM

NN/C(=N\S(=O)(=O)c1cc2ccccc2o1)Nc1ccc(Cl)cc1
inactive: Malme-3M > 100 µM | SR > 100 µM | SK-MEL-28 > 100 µM | COLO 205 > 100 µM | NCI-H460 > 100 µM | OVCAR-3 36.6 µM | SF-295 63.5 µM | 786-0 44 µM | UACC-257 > 100 µM | NCI/ADR-RES > 100 µM | SK-OV-3 42.8 µM | MDA-MB-231 67.9 µM | CAKI-1 > 100 µM | LOX IMVI > 100 µM | SF-268 33.9 µM | HT-29 > 100 µM | DU-145 > 100 µM | SK-MEL-2 > 100 µM | HCT-116 > 100 µM

O=C(NC1CCC(=O)N1C(=O)OCc1ccccc1)OCc1ccccc1 (stereo not drawn)
inactive: Malme-3M > 100 µM | SR > 100 µM | SK-MEL-28 > 100 µM | COLO 205 > 100 µM | NCI-H460 > 100 µM | OVCAR-3 > 100 µM | HCC 2998 > 100 µM | SF-295 > 100 µM | 786-0 > 100 µM | UACC-257 > 100 µM | NCI/ADR-RES > 100 µM | SK-OV-3 > 100 µM | MDA-MB-231 > 100 µM | CAKI-1 > 100 µM | SF-268 > 100 µM | HT-29 > 100 µM | DU-145 > 100 µM | SK-MEL-2 > 100 µM

O=C(O)CC(Nc1ccccc1)C(=O)O (stereo not drawn)
inactive: Malme-3M > 100 µM | SR > 100 µM | SK-MEL-28 > 100 µM | COLO 205 > 100 µM | NCI-H460 > 100 µM | OVCAR-3 > 100 µM | SF-295 > 100 µM | 786-0 > 100 µM | UACC-257 > 100 µM | NCI/ADR-RES > 100 µM | SK-OV-3 > 100 µM | MDA-MB-231 > 100 µM | CAKI-1 > 100 µM | LOX IMVI > 100 µM | SF-268 > 100 µM | HT-29 > 100 µM | DU-145 > 100 µM | SK-MEL-2 > 100 µM | HCT-116 > 100 µM

Cc1ccc(S(=O)(=O)N/N=C2/C3CC4CCC2C4C3)cc1 (stereo not drawn)
inactive: Malme-3M > 100 µM | SK-MEL-28 > 100 µM | COLO 205 > 100 µM | NCI-H460 > 100 µM | OVCAR-3 > 100 µM | HCC 2998 > 100 µM | SF-295 > 100 µM | 786-0 > 100 µM | UACC-257 > 100 µM | NCI/ADR-RES > 100 µM | SK-OV-3 > 100 µM | MDA-MB-231 > 100 µM | CAKI-1 > 100 µM | LOX IMVI > 100 µM | SF-268 > 100 µM | HT-29 > 100 µM | DU-145 > 100 µM | HCT-116 > 100 µM

Cc1ccc2c3c1O[C@H]1c4nc5ccccc5cc4C[C@@]4(O)[C@@H](C2)N(CC2CC2)CC[C@]314
inactive: Malme-3M 14.5 µM | SR 3.86 µM | SK-MEL-28 19.6 µM | COLO 205 5.2 µM | NCI-H460 20 µM | OVCAR-3 11.6 µM | SF-295 7.64 µM | 786-0 10.8 µM | UACC-257 24.7 µM | NCI/ADR-RES 6.44 µM | SK-OV-3 14.1 µM | MDA-MB-231 11.2 µM | CAKI-1 13.2 µM | LOX IMVI 4.47 µM | SF-268 7.03 µM | HT-29 3.31 µM | DU-145 14.1 µM | SK-MEL-2 18.5 µM | HCT-116 4.54 µM

N#CC(=C1CCCCC1)c1nc2ccccc2o1
inactive: Malme-3M > 100 µM | SR 37.9 µM | SK-MEL-28 > 100 µM | COLO 205 19.6 µM | NCI-H460 > 100 µM | OVCAR-3 56.5 µM | HCC 2998 50 µM | SF-295 > 100 µM | 786-0 > 100 µM | UACC-257 > 100 µM | NCI/ADR-RES 40 µM | SK-OV-3 > 100 µM | MDA-MB-231 > 100 µM | CAKI-1 64.1 µM | SF-268 55.2 µM | HT-29 61.5 µM | DU-145 > 100 µM | SK-MEL-2 > 100 µM | HCT-116 55.3 µM

COc1ccc([S+]([O-])Cc2cc(OC)ccc2OC)cc1 (stereo not drawn)
inactive: Malme-3M > 100 µM | SK-MEL-28 > 100 µM | COLO 205 > 100 µM | NCI-H460 > 100 µM | OVCAR-3 > 100 µM | HCC 2998 > 100 µM | SF-295 > 100 µM | 786-0 > 100 µM | UACC-257 > 100 µM | NCI/ADR-RES > 100 µM | SK-OV-3 > 100 µM | MDA-MB-231 > 100 µM | CAKI-1 > 100 µM | LOX IMVI > 100 µM | SF-268 > 100 µM | HT-29 > 100 µM | DU-145 > 100 µM | HCT-116 > 100 µM

CC1=CC(=O)C(=CN2C(=O)/C(=C\c3cccnc3)NC2=S)C(=O)O1
inactive: SK-MEL-28 > 100 µM | COLO 205 > 100 µM | NCI-H460 > 100 µM | OVCAR-3 > 100 µM | HCC 2998 > 100 µM | SF-295 > 100 µM | 786-0 > 100 µM | UACC-257 > 100 µM | NCI/ADR-RES > 100 µM | SK-OV-3 > 100 µM | MDA-MB-231 > 100 µM | CAKI-1 > 100 µM | LOX IMVI > 100 µM | HT-29 > 100 µM | DU-145 > 100 µM | SK-MEL-2 > 100 µM | HCT-116 > 100 µM

Clc1ccc(CSC2=NCCN2)cc1Cl
inactive: Malme-3M 13 µM | SK-MEL-28 18.7 µM | COLO 205 17.7 µM | NCI-H460 16.1 µM | OVCAR-3 14.1 µM | HCC 2998 15.2 µM | SF-295 36.8 µM | 786-0 11.6 µM | UACC-257 11.1 µM | NCI/ADR-RES 20.1 µM | SK-OV-3 24.6 µM | MDA-MB-231 11.8 µM | CAKI-1 11.2 µM | LOX IMVI 13.8 µM | SF-268 14.9 µM | HT-29 14.2 µM | DU-145 14.7 µM | HCT-116 14.9 µM
